Laboratory results reported in patent publication US7893041B2, “Oligosaccharide compositions and use thereof in the treatment of infection” (Children's Hospital Medical Center, priority 2003, dated 2011).

Assays:
Campylobacter jejuni = assay: Cohort of breastfed mother-infant pairs: milk oligosaccharide vs C. jejuni-associated diarrhea; assay type: in vivo, human; conditions: for Association of rates of C. jejuni diarrhea during breastfeeding with oligosaccharide as a percent of milk oligosaccharide: breastfed infants, 2′-FL P=0.004, LDFH-I P=0.047 (not persisting after controlling for 2′-FL)
Excerpt: (§1) A cohort of 316 mother-infant pairs was enrolled and monitored from birth to two years postpartum in San Pedro Martir, a transitional neighborhood of Mexico City. Enrollment was restricted to term, normal birthweight infants. This research was approved by institutional review boards in Mexico and Cincinnati. Written informed consent was obtained from mothers who participated. Infant illness and feeding history were collected by trained field workers who made weekly home visits. Milk samples were collected from mothers weekly in the first month, and monthly thereafter. Samples were collected in the morning by an experienced study nurse using an Egnell electric breast pump to obtain the complete content of one breast. Samples were transported on ice from the study household to the laboratory, where they were stored at −70° C. Infant stool samples were collected weekly with additional samples obtained whenever diarrhea occurred. Diarrhea samples were routinely tested for Campylobacter jejuni, diarrheagenic E. coli, Shigella, Salmonella, Aeromonas, and rotavirus, as detailed in previous publications (129, 136-138). […] Diarrhea episodes were defined throughout the study as three or more watery stools within a 24-hour period or loose-to-watery bowel movements that exceeded the child's usual daily stool frequency by two or more stools as determined by a study physician. […] Classification of disease severity was based on the standardized history of each diarrhea episode recorded by a study physician, and was blind to and independent of milk oligosaccharide analysis. Diarrhea was attributed to campylobacter or calicivirus if the pathogen was detected in a stool sample collected during or within seven days of an episode of diarrhea. […]
Milk samples were transported to Boston and analyzed as described previously(143). Milk oligosaccharides were isolated, perbenzoylated, and resolved by reversed-phase HPLC (C-8) with an acetonitrile/water gradient and detected at 229 nm. […]

Campylobacter = assay: Ex vivo inhibition of Campylobacter colonization of human intestinal mucosa; conditions: FIG. 9B
Procedure: FIGS. 9A and 9B are a pair of graphs depicting the results of an study showing inhibition of Campylobacter colonization in BALB/c mice fed with 2 mg of milk fucosylated oligosaccharides given during challenge with 10^4 and 10^8 CFU of bacteria (left). Ex vivo assays of inhibition of human gut colonization of Campylobacter with 2′-fucosyllactose (2′-FL) and milk fucosylated oligosaccharides (OS).

V. cholerae = conditions: previous studies (ref. 86); cited from earlier work
[1] = tested on: campylobacter adherence to intestinal epithelial cells; conditions: early studies (ref. 80); cited from earlier work
calicivirus = assay: Cohort of breastfed mother-infant pairs: milk oligosaccharide vs calicivirus-associated diarrhea; assay type: in vivo, human
Excerpt: as §1, with “thereafter.” for “thereafter. Samples were collected in the morning by an experienced study nurse using an Egnell electric breast pump to obtain the complete content of one breast. Samples were transported on ice from the study household to the laboratory, where they were stored at −70° C. Infant stool samples were collected weekly with additional samples obtained whenever diarrhea occurred. Diarrhea samples were routinely tested for Campylobacter jejuni, diarrheagenic E. coli, Shigella, Salmonella, Aeromonas, and rotavirus, as detailed in previous publications (129, 136-138).”
Milk samples were transported to Boston and analyzed as described previously(143). […]

[2] = tested on: Campylobacter binding to FUT1-CHO cells; assay: Inhibition of Campylobacter binding to FUT1-transfected CHO cells; assay type: cell-based, Campylobacter jejuni; conditions: FIG. 7
Excerpt: α1,2-fucosyltransferase-transfected CHO cells (CHO-FUT1), α1,3/4-fucosyltransferase-transfected CHO cells (CHO-FUT3), and α1,3-fucosyltransferase-transfected CHO cells (CHO-FUT4), and parental CHO cells transfected with the vector pCDM7 lacking the α1,2 FUT gene (CHO-WT) can be used to test bacterial binding and bacterial/host cell agglutination. Parental CHO cells with the vectors are used as controls.
The binding of bacteria to CHO cells transfected with the human gene for α1,2-fucosyltransferase (FUT1), can be assessed by bacterial-cell association assay. […]
Ligands, such as α1,2-fucosyl ligands and homologs are tested for their ability to inhibit binding of campylobacter and V. cholerae strains to CHO-FUT1 cells. For molecules that is bind to H-2 ligands, including anti-H-2 monoclonal antibodies (anti-H-2 MAbs) and the lectins Ulex europaeus (UEA I) and Lotus tetragonolobus (Lotus), inhibition is measured on monolayers of CHO-FUT1 cells incubated in 8-well chamber slides for 1 h with each of the α1,2-fucosyl ligands before adding 100 μL of the bacterial suspension containing 1×10^8 bacteria/mL. […] In both assays, after a 3 h incubation at 37° C., wells are rinsed, lysed with 1% Triton X100, and CFU (colony forming units) of bacteria per well are determined. […]

In the case of 2-Fucosyllactose [2′-FL], the “Association of rates of C. jejuni diarrhea during breastfeeding with oligosaccharide as a percent of milk oligosaccharide” value (Campylobacter jejuni) is reported as “inversely associated”, the “Campylobacter incidence in the intermediate and high groups compared to the low group” value (Campylobacter jejuni; tertiles (n=31) of 2′-FL as percent of milk oligosaccharide: low <0.29, intermediate 0.29-0.36, high >0.37, FIG. 6A) is reported as “significantly (P<0.01) less” and the “Inhibition of C. jejuni binding/colonization in human intestinal mucosa ex vivo” value (Campylobacter) is reported as “inhibits”.

In the case of `C[C@H](O)[C@@H](O)[C@@H](O)[C@H](O)C=O` [L-fucose], the “Inhibition of hemagglutination produced by V. cholerae with human O erythrocytes” value (V. cholerae) is listed as “inhibited” and the “Inhibition of campylobacter adherence to intestinal epithelial cells” value [1] is listed as “inhibition”.

In the case of Lacto-N-difucohexaose I [LDFH-I], the “Association of calicivirus diarrhea during breastfeeding with oligosaccharide as a percent of milk oligosaccharide” value (calicivirus; breastfed infants, P=0.012, dose-dependent) is reported as “inverse association”, the “Calicivirus incidence in the high group compared to the low group” value (calicivirus; tertiles (n=31) of LDFH-I as percent of milk oligosaccharide: low <0.07, intermediate 0.07-0.11, high >0.12, FIG. 6B) is reported as “significantly (P=0.02) less” and the “Association of rates of C. jejuni diarrhea during breastfeeding with oligosaccharide as a percent of milk oligosaccharide” value (Campylobacter jejuni) is reported as “directly associated”.

B1: Ulex europaeus lectin: lectin that binds to H-2 ligands (protein, UniProt P22972 1-243, looked up)
Anti-H(O) lectin 1: SDDLSFKFKNFSQNGKDLSFQGDASVIETGVLQLNKVGNNLPDETGGIARYIAPIHIWNCNTGEVASFITSFSFFMETSANPKAATDGLTFFLAPPDSPLRRAGGYFGLFEDTKDNDSSYQTVAVEFDTIGSPVNFDDPGFPHIGIDVNRVKSINAERWNKRYGLNNVANVEIIYEASSKTLTASLTYPSDQTSISVTSIVDLKEILPEWVSVGFSGGTYIGRQATHEVLNWYFTSNLINTNS
In the case of B1, the “Inhibition of bacterial binding to α1,2-fucosyltransferase (FUT1)-transfected CHO cells” value [2] is reported as “specifically inhibited”.
